# From paper PMC10837422, “Early onset diagnosis in Alzheimer’s disease patients via amyloid-β oligomers-sensing probe in cerebrospinal fluid” (Nature Communications, 2024)
# Tests used:
# [1] = target: T1, Amyloid-β 1–42 (Aβ1–42) fibrils (Homo sapiens, UniProt P05067); test: ThT fluorescence turn-on during Aβ[…] self-assembly (reference dye); assay type: binding
# T1 construct: gene APP
# [2] = target: T2, Amyloid-β 1–42 (Aβ1–42) oligomers (Homo sapiens, UniProt P05067); test: fluorescence saturation titration; hexamer fragment mapping assay; assay type: binding
# T2 construct: gene APP; full-length Aβ1–42 synthetic peptide, oligomers
# T2 sequence (P05067 672-713): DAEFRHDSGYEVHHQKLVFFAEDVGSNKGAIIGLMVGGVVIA
# T1 sequence (P05067 672-713): as above
Kd [2] [µM],SMILES,ThT fluorescence turn-on during Aβ1-42 self-assembly (reference dye) [1]
–,"Cc1ccc2c(c1)sc(-c1ccc(N(C)C)cc1)[n+]2C [ThT, thioflavin T]","matured Aβ aggregates formation, since ThT specifically detects cross-β-sheet via hydrophobic binding"
0.303 ± 0.0947,CC(C)CC1=[O+][B-](F)(F)OC(/C=C/c2ccc3nc(N(C)C)ccc3c2)=C1 [Q-OB],–
